This passage reports Ki results from US7456164B2, “3- or 4-monosubtituted phenol and thiophenol derivatives useful as H3 ligands” (Pfizer, Inc, priority 2004, dated 2008).

Structures are written as SMILES. pKi: −log10 of the molar value.

The target of the first assay is T1, human histamine H3 receptor (Homo sapiens, UniProt Q9Y5N1).
T1 construct: expressed in transfected cells
T1 sequence (Q9Y5N1 whole entry): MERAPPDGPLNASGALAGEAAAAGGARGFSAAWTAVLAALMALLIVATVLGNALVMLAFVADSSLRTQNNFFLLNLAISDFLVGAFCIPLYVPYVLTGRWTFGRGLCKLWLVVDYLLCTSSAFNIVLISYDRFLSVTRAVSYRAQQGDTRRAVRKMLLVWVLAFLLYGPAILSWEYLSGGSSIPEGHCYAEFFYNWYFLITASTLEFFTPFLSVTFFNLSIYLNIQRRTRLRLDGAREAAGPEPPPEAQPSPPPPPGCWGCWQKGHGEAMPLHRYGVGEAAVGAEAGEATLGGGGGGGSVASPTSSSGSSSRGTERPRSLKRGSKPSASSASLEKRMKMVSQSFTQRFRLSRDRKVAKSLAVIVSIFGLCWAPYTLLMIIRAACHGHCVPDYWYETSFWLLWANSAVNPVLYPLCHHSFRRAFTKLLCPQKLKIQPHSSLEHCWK
The assay is described as follows: H3 cell based functional assay (cAMP, β-lactamase reporter gene).
Settings: not given
The protocol:
Compounds were evaluated using a cell based functional assay measuring cAMP through β-lactamase reporter gene activity. A stable cell line was generated from HEK-293 cells expressing a CRE β-lactamase reporter gene and transfected with human histamine H3 receptor cDNA. Cells were seeded at a density of 500,000 cells/ml, and grown overnight in MEM (Invitrogen) supplemented with 1% dialysed FBS (Sigma), 2 mM glutamine (Sigma), 1 mM sodium pyruvate (Sigma), 0.1 mM non essential amino acids (Invitrogen) and 25 mM HEPES (Sigma) in poly D lysine coated 384 well plates (BD Biosciences). […] Cells were incubated for 15 minutes plus/minus compound and their ability to permit 10 μM forskolin-stimulated cAMP synthesis in the presence of 1 nM imetit was measured as described above.
(A reporter such as luciferase makes a cellular process visible.)
As a reminder, the pKi is −log10 of the Ki, conventionally taken in molar units. `CC(C)N1CCC(Oc2ccc(C3(CNc4ccnnc4)CCOCC3)cc2)CC1` [Example 267, N-[(4-{4-[(1-isopropylpiperidin-4-yl)oxy]phenyl}tetrahydro-2H-pyran-4-yl)methyl]pyridazin-4-amine]: the pKi was 8.24.

The assay is the same for the next values; noted with them: functional Ki from IC50 by Cheng-Prussoff; HEK-293 CRE β-lactamase cells, 10 μM forskolin, 1 nM imetit; read-out: Ki (H3 cell based assay - nM).
As a reminder, the Ki is a measure of affinity in units of concentration, obtained from inhibition or displacement. With `CN(C)CC1(c2ccc(OCCCN3CCCC3)cc2)CCOCC1` [Example 29, Dimethyl-{4-[4-(3-pyrrolidin-1-ylpropoxy)phenyl]-tetrahydro-pyran-4-ylmethyl}amine], the Ki was determined as 0.4 nM.

As to `CC(C)N1CCC(Oc2ccc(C3(C(=O)N(C)C)CCOCC3)cc2)CC1` [Example 133, 4-{4-[(1-isopropylpiperidin-4-yl)oxy]phenyl}-N,N-dimethyltetrahydro-2H-pyran-4-carboxamide], the Ki came out at 12.4 nM.

As to `Cc1csc(C2(c3ccc(OCCCN4CCCC4)cc3)CCOCC2)n1` [Example 136, 4-methyl-2-[4-(4-(3-pyrrolidin-1-ylpropoxy)phenyl)tetrahydro-2H-pyran-4-yl]-1,3-thiazole], the Ki worked out at 3.9 nM.

As for `CN(C)C(=O)C1(c2ccc(OC3CCN(C4CCC4)CC3)cc2)CCOCC1` [Example 155, 4-{4-[(1-cyclobutylpiperidin-4-yl)oxy]phenyl}-N,N-dimethyltetrahydro-2H-pyran-4-carboxamide], the Ki came to 1 nM.

Turning to `CNC(=O)C1(c2ccc(OC3CCN(C4CCC4)CC3)cc2)CCOCC1` [Example 156, 4-{4-[(1-cyclobutylpiperidin-4-yl)oxy]phenyl}-N-methyltetrahydro-2H-pyran-4-carboxamide], the Ki is 2 nM.

For `CCNC(=O)C1(c2ccc(OC3CCN(C4CCC4)CC3)cc2)CCOCC1` [Example 160, 4-{4-[(1-cyclobutylpiperidin-4-yl)oxy]phenyl}-N-ethyltetrahydro-2H-pyran-4-carboxamide], the inhibitory constant (Ki) came to 1.5 nM.

As for `O=C(N1CCCC1)C1(c2ccc(OCCCN3CCCC3)cc2)CCOCC1` [Example 187, 1-(3-{4-[4-(pyrrolidin-1-ylcarbonyl)tetrahydro-2H-pyran-4-yl]phenoxy}propyl)pyrrolidine], the Ki was 7.3 nM.

Consider `O=C(N1CCCCC1)C1(c2ccc(OCCCN3CCCC3)cc2)CCOCC1` [Example 188, 1-({4-[4-(3-pyrrolidin-1-ylpropoxy)phenyl]-tetrahydro-2H-pyran-4-yl}carbonyl)piperidine], for which the Ki is 6.8 nM.

In the case of `O=C(N1CCC1)C1(c2ccc(OCCCN3CCCC3)cc2)CCOCC1` [Example 189, 1-(3-{4-[4-(azetidin-1-ylcarbonyl)tetrahydro-2H-pyran-4-yl]phenoxy}propyl)pyrrolidine], the inhibitory constant (Ki) amounted to 14.3 nM.

As to `CCN(C)C(=O)C1(c2ccc(OCCCN3CCCC3)cc2)CCOCC1` [Example 190, N-ethyl-N-methyl-4-[4-(3-pyrrolidin-1-ylpropoxy)phenyl]tetrahydro-2H-pyran-4-carboxamide], the inhibition constant Ki worked out at 2.4 nM.

For the compound `CN(C)C(=O)C1(c2ccc(OCCCN3CCCC3)cc2)CCOCC1` [Example 191, N,N-dimethyl-4-[4-(3-pyrrolidin-1-ylpropoxy)-phenyl]tetrahydro-2H-pyran-4-carboxamide], the Ki came out at 10.3 nM.

As to `c1ccc2c(c1)ncn2CC1(c2ccc(OCCCN3CCCC3)cc2)CCOCC1` [Example 196], the Ki worked out at 0.6 nM.

On to `c1ccc(C2(c3ccc(OCCCN4CCCC4)cc3)CCOCC2)nc1` [Example 205, 2-{4-[4-(3-pyrrolidin-1-ylpropoxy)phenyl]tetrahydro-2H-pyran-4-yl}-pyridine], for which the Ki turned out to be 5.8 nM.

On to `c1ncc(C2(c3ccc(OCCCN4CCCC4)cc3)CCOCC2)o1` [Example 206, 5-{4-[4-(3-pyrrolidin-1-ylpropoxy)phenyl]tetrahydro-2H-pyran-4-yl}-1,3-oxazole], for which the Ki worked out at 12.9 nM.

As to `CN(C)CC1(c2ccc(OCCCN3CCOCC3)cc2)CCOCC1` [Example 213, N,N-dimethyl-1-{4-[4-(3-morpholin-4-ylpropoxy)phenyl]tetrahydro-2H-pyran-4-yl}methanamine], the Ki turned out to be 2.6 nM.

For the compound `CC(C)N1CC(COc2ccc(C3(CN4CCOCC4)CCOCC3)cc2)C1` [Example 220, 4-[(4-{4-[(1-isopropylazetidin-3-yl)methoxy]phenyl}tetrahydro-2H-pyran-4-yl)methyl]morpholine], the Ki was found to be 2.2 nM.

Regarding `c1cc2c(cn1)ncn2CC1(c2ccc(OCCCN3CCCC3)cc2)CCOCC1` [Example 247, 1-({4-[4-(3-pyrrolidin-1-ylpropoxy)phenyl]tetrahydro-2H-pyran-4-yl}methyl)-1H-imidazo[4,5-c]pyridine], the Ki came to 3.9 nM.

On to `c1cnc2c(c1)ncn2CC1(c2ccc(OCCCN3CCCC3)cc2)CCOCC1` [Example 248, 3-({4-[4-(3-pyrrolidin-1-ylpropoxy)phenyl]tetrahydro-2H-pyran-4-yl}methyl)-3H-imidazo[4,5-b]pyridine], for which the inhibition constant Ki turned out to be 0.3 nM.

As to `c1cnc2ncn(CC3(c4ccc(OCCCN5CCCC5)cc4)CCOCC3)c2c1` [Example 249, 1-({4-[4-(3-pyrrolidin-1-ylpropoxy)phenyl]tetrahydro-2H-pyran-4-yl}methyl)-1H-imidazo[4,5-b]pyridine], the inhibitory constant (Ki) was determined as 9.7 nM.

Turning to `c1cc(NCC2(c3ccc(OCCCN4CCCC4)cc3)CCOCC2)cnn1` [Example 250, N-({4-[4-(3-pyrrolidin-1-ylpropoxy)phenyl]tetrahydro-2H-pyran-4-yl}methyl)pyridazin-4-amine], the Ki worked out at 4.6 nM.

For `CNCC1(c2ccc(OCCCN3CCOCC3)cc2)CCOCC1` [Example 254, N-methyl-1-{4-[4-(3-morpholin-4-ylpropoxy)phenyl]tetrahydro-2H-pyran-4-yl}methanamine], the Ki came out at 1.3 nM.

Take `c1c[nH]c(C2(c3ccc(OCCCN4CCCC4)cc3)CCOCC2)n1` [Example 266, 2-{4-[4-(3-pyrrolidin-1-ylpropoxy)phenyl]tetrahydro-2H-pyran-4-yl}-1H-imidazole]: the Ki was 9.7 nM.

For `c1cc(C2(CN3CCOCC3)CCOCC2)ccc1OCCCN1CCCOCC1` [Example 268, 4-(3-{4-[4-(morpholin-4-ylmethyl)tetrahydro-2H-pyran-4-yl]phenoxy}propyl)-1,4-oxazepane], the Ki came to 6.5 nM.

As for `c1cc(C2(Cn3cnnc3)CCOCC2)ccc1OCCCN1CCCC1` [Example 272, 4-({4-[4-(3-pyrrolidin-1-ylpropoxy)phenyl]tetrahydro-2H-pyran-4-yl}methyl)-4H-1,2,4-triazole], the Ki was 10.8 nM.

In the case of `c1cc(C2(c3ccc(OCCCN4CCCC4)cc3)CCOCC2)ncn1` [Example 276, 4-{4-[4-(3-pyrrolidin-1-ylpropoxy)phenyl]tetrahydro-2H-pyran-4-yl}pyrimidine], the Ki worked out at 6.2 nM.
